The conditions of data set [1]: mouse.
For data set [2] the following is noted: mouse, in vivo, ip.
Method: Cell permeability of peptide drugs was determined by fluorescence measurement of TAMRA-labeled peptides in 96-well plates and ClarioStar Plus plate reader using BMG ClarioStar MARS software (version 4.20). […] Percent uptake was calculated as background-subtracted fluorescence absorbed by cells/fluorescence of peptide in media-only wells, then made relative to TAMRA-Alkyne. Three biological replicates (n = 3) were performed per cell line per treatment group. Peptide proteolysis was measured using immobilized Trypsin-agarose resin (Thermo Fisher) and quantification by LC-MS. […] In vivo pharmacokinetics were performed by the UACC Analytical Chemistry Shared Resource. […] The mice were fed NIH-31 irradiated pellets (Tekland Premier, Madison, Wisconsin), and reverse osmosis water was freely available. […] The average plasma concentration versus time data were analyzed using PKSolver (version 2.0) by a noncompartmental approach.

In the case of `CCCCCCCCCCCCCC(=O)N[C@@H](CC(N)=O)C(=O)N[C@@H](CC(C)C)C(=O)N[C@]1(C)CCCCCCC=CCCC[C@@](C)(C(=O)N[C@@H](CCC(=O)O)C(=O)N[C@@H](CC(C)C)C(=O)N[C@@H](CC(N)=O)C(N)=O)NC(=O)[C@H](CC(C)C)NC(=O)[C@H](CC(C)C)NC(=O)[C@H](CCCNC(=N)N)NC(=O)[C@H](CC(=O)O)NC(=O)[C@H](CC(C)C)NC(=O)[C@H](CCC(=O)O)NC1=O` [compound 2012], the “plasma stability t1/2” value in data set [1] is over 2 h. Also, in data set [2], the “Cmax, molar concentration” value came out at 48.5 µM and the plasma clearance came out at 0.0156 L/h/kg.

The values above are taken from article PMC11871066, “Structure-based discovery of hydrocarbon-stapled paxillin peptides that block FAK scaffolding in cancer” (Nature Communications, 2025).
